Laboratory results published in patent US20230312587A1, “PTERIDINONE COMPOUNDS AND USES THEREOF” (Vertex Pharmaceutical Incorporated, priority 2018, published 2023).

Columns and labels:
[1] = tested on: Colo205-TCF/LEF-Luciferase (Luc) tumor; assay: In vivo inhibition of TCF/LEF reporter activity in Colo-205 tumors; design: concentration or dose not given beside the values; settings: TCF/LEF luciferase reporter in Colo-205 tumors, nu/nu mice, oral gavage
Method: Colo205-TCF/LEF-Luciferase (Luc) tumor cells were expanded in complete DMEM cell culture media [DMEM (Life Technologies, product #11960-051) media supplemented with 10% FBS (Hyclone, catalog #SH30071.03), antimycotic/antibiotic (Life Technologies, product #15240-062), and Glutamax (Life Technologies, product #35050-061)] with 1 ug/ml puromycin. After reaching confluency/high density, the loosely attached cells in media were transferred from the flask to 50 ml conical tubes. Tumor cells adhered to plastic were detached with trypsin and combined with cells in the conical tubes. The tumor cells were triturated, counted, and pelleted by centrifugation. Cell pellets were resuspended in 0.9% injectable saline (6×10^7 cells/ml). A 50 ul volume (3×10^6 cells) was injected subcutaneously in the flanks of 4-6 wk old female nu/nu mice (Charles River Laboratories). Approximately 13-16 days after implantation, tumors between 200-500 mm^3 were selected (based on caliper measurements and applying the formula […]) and randomized into groups of n=4. Mice were dosed by oral gavage with compound dissolved in 1:3:5:1 EtOH:DMSO:PEG-400:H2O at a rate of 10 ml/kg or 1:3:5:1 EtOH:DMSO:PEG-400:H2O alone (Vehicle Control). Tumors were collected from mice euthanized by CO2 inhalation and snap frozen in liquid nitrogen. Tumors were stored in a −80 degrees C. freezer until they were processed.
Tumors were thawed on ice and homogenized in cold Lysis Buffer (20 mM Tris-HCl (pH 7.5), 150 mM NaCl, 1 mM Na2EDTA, 1 mM EGTA, 1% Triton, 2.5 mM sodium pyrophosphate, 1 mM beta-glycerophosphate, 1 mM Na3VO4, 1 μg/ml leupeptin, 0.05% SDS) using a closed tissue grinder system (Fisher Scientific, Cat #02-542-09) on ice according to manufacturer's instructions. For 100 mg of tumor, 500 uL of Lysis Buffer was used. Tumor lysate was transferred to a pre-chilled microcentrifuge tube and centrifuged at 10,000×g for 10 minutes at 4 degrees C. Supernatant was transferred to a new pre-chilled microcentrifuge tube and was used immediately for analysis of protein content and luciferase activity.
Protein content of tumor lysate supernatant was determined using the BCA assay (Life Technologies Cat #23225). Luciferase activity of tumor lysate supernatant was determined by addition of Steady-Glo luminescence reagent (Promega, Cat #E2550) according to manufacturer's instructions and measurement on a Pherastar luminescence plate reader (BMG Labtech). Luciferase activity was normalized to protein content.

[2] = tested on: β-catenin-TCF-mediated reporter transcription activity in Colo 205 cells; assay: Colo 205 reporter assay (TCF/LEF luciferase); type: cell-based; settings: Homo sapiens, COLO 205, 5 h, Colo 205 TCF/LEF luciferase reporter, five hours after addition of compound; read-out: TCF reporter Colo205 IC50
Summary of the method: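 Luciferase signal from a TCF/LEF-driven reporter, stably integrated in Colo 205 colon cancer cells, was measured 5 h after compound addition.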

Row | IC50 [2] [nM] | Compound | Percent Remaining Activity at 8 hrs after Dosing [1] [%]
1 | 300 to 1000 | Cc1nc(NCc2cnn(Cc3ccc(C(F)(F)F)nc3)c2)nc2c1N(C)C(=O)[C@H](CCO)N2C [Compound 443, (7S)-7-(2-hydroxyethyl)-4,5,8-trimethyl-2-(((1-((6-(trifluoromethyl)pyridin-3-yl)methyl)-1H-pyrazol-4-yl)methyl)amino)-7,8-dihydropteridin-6(5H)-one] | 100
2 | < 300 | COCC[C@H]1C(=O)Nc2c(C)nc(NCc3cnn(Cc4ccc(C(F)(F)F)nc4)c3)nc2N1C [Compound 589, (S)-7-(2-methoxyethyl)-4,8-dimethyl-2-(((1-((6-(trifluoromethyl)pyridin-3-yl)methyl)-1H-pyrazol-4-yl)methyl)amino)-7,8-dihydropteridin-6(5H)-one] | 94
3 | < 300 | Cc1nc(NCc2cnn(Cc3ccc(F)nc3)c2)nc2c1NC(=O)[C@H](C(C)(C)C)N2C [Compound 437, (7S)-7-(tert-butyl)-2-(((1-((6-fluoropyridin-3-yl)methyl)-1H-pyrazol-4-yl)methyl)amino)-4,8-dimethyl-7,8-dihydropteridin-6(5H)-one] | 20
4 | < 300 | Cc1nc(NCc2cnn(Cc3ccc(C(F)(F)F)o3)c2)nc2c1NC(=O)[C@H](C(C)C)N2C [Compound 518, (S)-7-isopropyl-4,8-dimethyl-2-(((1-((5-(trifluoromethyl)furan-2-yl)methyl)-1H-pyrazol-4-yl)methyl)amino)-7,8-dihydropteridin-6(5H)-one] | 21
5 | < 300 | Cc1nc(NCc2cnn(Cc3ccc(C(C)(F)F)nc3)c2)nc2c1NC(=O)[C@H](C(C)C)N2C [Compound 511, (S)-2-(((1-((6-(1,1-difluoroethyl)pyridin-3-yl)methyl)-1H-pyrazol-4-yl)methyl)amino)-7-isopropyl-4,8-dimethyl-7,8-dihydropteridin-6(5H)-one] | 52

Continued, compound first:

Row | Compound | IC50 [2] [nM] | Percent Remaining Activity at 8 hrs after Dosing [1] [%]
6 | COc1c(F)cc(C(=O)N2CC(Nc3nc(C)c4c(n3)N(C)[C@@H](C(C)C)C(=O)N4)C2)cc1F [Compound 542, (S)-2-((1-(3,5-difluoro-4-methoxybenzoyl)azetidin-3-yl)amino)-7-isopropyl-4,8-dimethyl-7,8-dihydropteridin-6(5H)-one] | < 300 | 22
7 | CO[C@H](C)[C@H]1C(=O)Nc2c(C)nc(NCc3cnn(Cc4ccc(F)cc4)c3)nc2N1C [Compound 658, (S)-2-(((1-(4-fluorobenzyl)-1H-pyrazol-4-yl)methyl)amino)-7-((R)-1-methoxyethyl)-4,8-dimethyl-7,8-dihydropteridin-6(5H)-one] | < 300 | 62
8 | Cc1nc(NCc2cnn(Cc3ccnc(N(C)C)c3)c2)nc2c1NC(=O)[C@H](C1CC1)N2C [Compound 466, (S)-7-cyclopropyl-2-(((1-((2-(dimethylamino)pyridin-4-yl)methyl)-1H-pyrazol-4-yl)methyl)amino)-4,8-dimethyl-7,8-dihydropteridin-6(5H)-one] | < 300 | 101
9 | Cc1nc(NCc2cnn(Cc3cc(F)c(F)c(F)c3)c2)nc2c1NC(=O)[C@H](C(C)C)N2C [Compound 449, (S)-7-isopropyl-4,8-dimethyl-2-(((1-(3,4,5-trifluorobenzyl)-1H-pyrazol-4-yl)methyl)amino)-7,8-dihydropteridin-6(5H)-one] | < 300 | 22
10 | Cc1nc(NCc2cnn(Cc3ccc(F)cc3C#N)c2)nc2c1N(C)C(=O)[C@H](C)N2C [Compound 63, (7S)-5-fluoro-2-((4-(((4,5,7,8-tetramethyl-6-oxo-5,6,7,8-tetrahydropteridin-2-yl)amino)methyl)-1H-pyrazol-1-yl)methyl)benzonitrile] | < 300 | 9
11 | COCC[C@H]1C(=O)Nc2c(C)nc(NCc3cnn(Cc4cc(C(F)(F)F)nn4C)c3)nc2N1C [Compound 678, (S)-7-(2-methoxyethyl)-4,8-dimethyl-2-(((1-((1-methyl-3-(trifluoromethyl)-1H-pyrazol-5-yl)methyl)-1H-pyrazol-4-yl)methyl)amino)-7,8-dihydropteridin-6(5H)-one] | < 300 | 75
12 | CO[C@H](C)[C@H]1C(=O)Nc2c(C)nc(NCc3cnn(Cc4ccc(Cl)nc4)c3)nc2N1C [Compound 499, (S)-2-(((1-((6-chloropyridin-3-yl)methyl)-1H-pyrazol-4-yl)methyl)amino)-7-((R)-1-methoxyethyl)-4,8-dimethyl-7,8-dihydropteridin-6(5H)-one] | < 300 | 31
13 | Cc1nc(NCc2cnn(Cc3ccnc(C(F)(F)F)c3)c2)nc2c1NC(=O)[C@H](C(C)C)N2C [Compound 447, (S)-7-isopropyl-4,8-dimethyl-2-(((1-((2-(trifluoromethyl)pyridin-4-yl)methyl)-1H-pyrazol-4-yl)methyl)amino)-7,8-dihydropteridin-6(5H)-one] | < 300 | 76
14 | Cc1nc(NCc2cnn(Cc3ccc(C(F)(F)F)nc3)c2)nc2c1NC(=O)[C@H](C(C)(C)C)N2C [Compound 436, (7S)-7-(tert-butyl)-4,8-dimethyl-2-(((1-((6-(trifluoromethyl)pyridin-3-yl)methyl)-1H-pyrazol-4-yl)methyl)amino)-7,8-dihydropteridin-6(5H)-one] | < 300 | 16
15 | Cc1nc(NC2CN(C(=O)c3ccc(Cl)nc3)C2)nc2c1NC(=O)[C@H](C(C)C)N2C [Compound 549, (S)-2-((1-(6-chloronicotinoyl)azetidin-3-yl)amino)-7-isopropyl-4,8-dimethyl-7,8-dihydropteridin-6(5H)-one] | 1000 to 5000 | 30
16 | Cc1nc(N[C@H]2C[C@@H](Nc3ccc(C(F)(F)F)nn3)C2)nc2c1NC(=O)[C@H](C(C)C)N2C [Compound 556, (S)-7-isopropyl-4,8-dimethyl-2-((cis-3-((6-(trifluoromethyl)pyridazin-3-yl)amino)cyclobutyl)amino)-7,8-dihydropteridin-6(5H)-one] | < 300 | 62
